{
  "source": "patent US20050084456A1",
  "about": "“Functionalized particles” (priority 2003, published 2005)",
  "test": "Distribution of intravenously administered FITC-labeled NIPA nanoparticles in uveal tissue",
  "conditions": "12 hours after intravenous administration; FIG. 3",
  "data": [
    {"substance": "fluorescein-isothiocyanate [FITC]", "values": [
      {"measurement": "presence / accumulation in uveal tissue", "result": "no accumulation"}
    ]}
  ]
}
